# From patent US12391641B2, “Prostaglandin EP4 receptor antagonist compounds” (NXERA PHARMA UK LIMITED, priority 2019, dated 2025)
# Biological target: T1, Human prostaglandin E2 receptor 4 (EP4) (Homo sapiens, UniProt P35408)
# T1 construct: expressed in transfected cells; host or cells: HEK293 cells transduced with EP4 BacMam virus
# Experiment: cAMP Gs Functional Assay (HTRF cAMP dynamic-2), antagonism of PGE2
# Format: cell-based
# Settings: HEK293 cells transfected with EP4 BacMam virus; PGE2 challenge at EC80 (7 nM); pIC50 converted to functional pKb with a modified Cheng Prussoff equation; read-out: Human EP4 fpKb (converted)
# Protocol: Cloning, Baculovirus generation, large scale infection of HEK293 cells and membrane preparation: Human prostaglandin E2 receptor 4 (EP4) was cloned into pBacMam expression vector (GeneScript, UK). Transposition of EP4 DNA was performed using Invitrogen's Bac-to-Bac Baculovirus Expression Systems. P0 baculovirus was generated by transfecting SF9 Cells with bacmid DNA using Cellfectin II transfection reagent (ThermoFisher Scientific, UK, catalog number 10362-100). Following P0 generation P1 virus was then generated ready for large scale infection and membrane preparation. HEK293 cells were grown in DMEM+Glutamax, supplemented with 10% heat inactivated fetal bovine serum (FBS). Cells were infected at a seeding density of 3.5 million cells/mL in 500 cm^3 flasks at 5% v/v EP4 Bacman. Expression was carried out over 36 hr period at 37° C. with 5% CO2. The cells were removed using PBS and a cell scrapper. The cell culture was centrifuged at 2500 RPM for 10 mins at 4° C. The supernatant was then poured off and the pellet stored at −80° C. The pellet was defrosted and re-suspended in 15 mL of homogenising buffer (20 mM HEPES, 10 mM EDTA, pH 7.4). Then homogenised in mechanical homogeniser (VMR) for 10 seconds. The membrane was centrifuged in centrifuge tubes at 40,000 g for 15 mins at 4° C. The supernatant was poured away and re-suspended in 15 mL of homogenising buffer. Homogenised for 20 seconds. The membrane was centrifuged at 40,000 g for 45 mins at 4° C. The membrane was re-suspended in 3 mL of storage buffer (20 mM HEPES, 0.1 mM EDTA, pH 7.4) mixing well. The resulting membranes were then stored at −80° C.
# cAMP Gs Functional Assay: cAMP production following EP4 receptor activation was determined using the Homogeneous Time-Resolved Fluorescence (HTRF) cAMP dynamic-2 assay (Cisbio, France). HEK293 cells were transfected using a 0.5% EP4 Bacman virus for 36 hours, before dissociating the cells, and freezing at […].
# On the day of testing, increasing concentration of test compounds, alongside positive controls (1 uM ONO-AE3-208) and negative control (DMSO (Sigma-Aldrich, UK) were added to a ProxiPlate-384 Plus, White 384-shallow well Mircoplate, (PerkinElmer, USA) using the ECHO dispense.
# Cells were defrosted in a water bath and resuspended in DMEM supplemented with 10% FBS before centrifuging at 1200 RPM for 5 mins to form a pellet. The pellet was resuspended in assay buffer (DMEM+0.5 mM IBMX (Tocris, Abingdon, UK, Catalog Number 2845)) to a 1×10^6 cells/mL. Cell suspension, for a final assay concentration of 5000 cell/well was added using the multidrop to the pre-dispensed assay plate. The plate was then incubated at 37° C. for 30 mins, with 5% CO2. After incubation, EC80 concentration (7 nM) of PGE2 (EP4 agonist) was added to the plate. In parallel, a PGE2 dose-response curve was dispense to a separate plate. Assay buffer was then dispensed on top. The cAMP production was determined as manufacturer's instructions, before plates were read on a PheraStar fluorescence plate reader (BMG LabTech, Germany).
# The pIC50 was converted to a functional pKb value using a modified Cheng Prussoff equation where Kd=agonist EC50 and Lhot=agonist challenge concentration;
# T1 sequence (P35408 whole entry): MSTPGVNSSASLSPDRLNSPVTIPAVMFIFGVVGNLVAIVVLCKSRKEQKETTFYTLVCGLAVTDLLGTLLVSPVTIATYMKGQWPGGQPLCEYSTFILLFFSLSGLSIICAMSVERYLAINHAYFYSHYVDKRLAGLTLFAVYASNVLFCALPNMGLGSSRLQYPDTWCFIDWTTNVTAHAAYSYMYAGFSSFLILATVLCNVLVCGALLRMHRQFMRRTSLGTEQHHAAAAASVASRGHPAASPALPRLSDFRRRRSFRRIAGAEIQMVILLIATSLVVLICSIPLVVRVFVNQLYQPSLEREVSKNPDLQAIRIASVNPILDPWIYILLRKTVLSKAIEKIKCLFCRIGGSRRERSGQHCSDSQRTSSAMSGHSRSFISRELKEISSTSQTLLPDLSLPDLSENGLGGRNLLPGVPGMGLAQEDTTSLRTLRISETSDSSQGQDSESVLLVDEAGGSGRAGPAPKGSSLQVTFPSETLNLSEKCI
row,Ki,SMILES
1,64.6 nM,"CC(C)C(OCc1ccc(C2COC2)cc1)C(=O)N[C@@H](C)c1ccc(C(=O)O)cc1 (mixture of isomers) [Example 47, 4-((1S)-1-(3-methyl-2-((4-(oxetan-3-yl)benzyl)oxy)butanamido)ethyl)benzoic acid]"
2,33.1 nM,"CC(C)[C@@H](OCc1ccc(C(F)(F)F)nc1)C(=O)NC1(c2ccc(C(=O)O)cc2)CC1 [Example 76, (R)-4-(1-(3-methyl-2-((6-(trifluoromethyl)pyridin-3-yl)methoxy)butanamido)cyclopropyl)benzoic acid]"
3,7.24 nM,"CC(C)[C@@H](OCc1cccc(C#N)c1)C(=O)N[C@@H](C)c1ccc(C(=O)O)cc1 [Example 22, 4-((S)-1-((R)-2-((3-cyanobenzyl)oxy)-3-methylbutanamido)ethyl)benzoic acid]"
4,2.34 nM,"CC(C)[C@@H](OCc1ccc(C(F)F)cc1)C(=O)N[C@@H](C)c1ccc(C(=O)O)cc1 [Example 13, 4-((S)-1-((R)-2-((4-(difluoromethyl)benzyl)oxy)-3-methylbutanamido)ethyl)benzoic acid]"
5,11.7 nM,"CC(C)[C@@H](OCc1ccc(C(F)F)cn1)C(=O)NC1(c2ccc(C(=O)O)cc2)CC1 [Example 88, (R)-4-(1-(2-((5-(difluoromethyl)pyridin-2-yl)methoxy)-3-methylbutanamido)cyclopropyl)benzoic acid]"
6,141 nM,"CC(C)C(OCc1cccc(C2COC2)c1)C(=O)N[C@@H](C)c1ccc(C(=O)O)cc1 (single isomer, unassigned) [Example 48]"
7,2.29 nM,"CC(C)C(OCc1cccc(C2COC2)c1)C(=O)N[C@@H](C)c1ccc(C(=O)O)cc1 (single isomer, unassigned) [Example 49]"
8,1.91 nM,"COCc1cccc(CO[C@@H](C(=O)NC2(c3ccc(C(=O)O)cc3)CC2)C(C)C)c1 [Example 60, (R)-4-(1-(2-((3-(methoxymethyl)benzyl)oxy)-3-methylbutanamido)cyclopropyl)benzoic acid]"
9,0.195 nM,"CC(C)[C@@H](OCc1cccc(C2CC2)c1)C(=O)NC1(c2ccc(-c3nnn[nH]3)cc2)CC1 [Example 80, (R)-2-((3-cyclopropylbenzyl)oxy)-N-(1-(4-(2,3-dihydro-1H-tetrazol-5-yl)phenyl)cyclopropyl)-3-methylbutanamide]"
10,> 195 nM,"CC(C)[C@H](OCc1ccc(F)cc1)C(=O)N[C@@H](C)c1ccc(C(=O)O)cc1 [Example 4, 4-((S)-1-((S)-2-((4-fluorobenzyl)oxy)-3-methylbutanamido)ethyl)benzoic acid]"
11,0.501 nM,"CC(C)[C@@H](OCc1ccc(C(F)(F)F)cc1)C(=O)N[C@@H](C)c1ccc(-c2nnn[nH]2)cc1 [Example 43, (R)—N—((S)-1-(4-(1H-tetrazol-5-yl)phenyl)ethyl)-3-methyl-2-((4-(trifluoromethyl)benzyl)oxy)butanamide]"
12,28.2 nM,"COc1ccc(COC(C(=O)N[C@@H](C)c2ccc(C(=O)O)cc2)C(C)C)cc1 (mixture of isomers) [Example 6, 4-((1S)-1-(2-((4-methoxybenzyl)oxy)-3-methylbutanamido)ethyl)benzoic acid]"
13,> 195 nM,"CC(C)[C@H](OCc1ccc(S(C)(=O)=O)cc1)C(=O)N[C@@H](C)c1ccc(C(=O)O)cc1 [Example 9, 4-((S)-1-((S)-3-methyl-2-((4-(methylsulfonyl)benzyl)oxy)butanamido)ethyl)benzoic acid]"
14,2.45 nM,CC(C)[C@@H](OCc1ccc(Cl)c(F)c1)C(=O)NC1(c2ccc(C(=O)O)cc2)CC1 [Example 79]
15,4.17 nM,"CC(C)[C@@H](OCc1ccc(F)cc1)C(=O)N[C@@H](C)c1ccc(C(=O)O)cc1 [Example 5, 4-((S)-1-((R)-2-((4-fluorobenzyl)oxy)-3-methylbutanamido)ethyl)benzoic acid]"
16,5.37 nM,"CC(C)[C@@H](OCc1ccc(C2CC2)cc1)C(=O)N[C@@H](C)c1ccc(C(=O)O)cc1 [Example 30, 4-((S)-1-((R)-2-((4-cyclopropylbenzyl)oxy)-3-methylbutanamido)ethyl)benzoic acid]"
17,0.603 nM,"CC(C)[C@@H](OCc1ccc(C(F)F)c(F)c1)C(=O)N[C@@H](C)c1ccc(C(=O)O)cc1 [Example 29, 4-((S)-1-((R)-2-((4-(difluoromethyl)-3-fluorobenzyl)oxy)-3-methylbutanamido)ethyl)benzoic acid]"
18,79.4 nM,"CS(=O)(=O)c1cccc(COC(C(=O)NC2(c3ccc(C(=O)O)cc3)CC2)C2CCC2)c1 (stereo not drawn) [Example 95, 4-(1-(2-cyclobutyl-2-((3-(methylsulfonyl)benzyl)oxy)acetamido)cyclopropyl)benzoic acid]"
19,0.372 nM,"CC(C)[C@@H](OCc1ccc(F)c(OC(F)F)c1)C(=O)NC1(c2ccc(C(=O)O)cc2)CC1 [Example 57, (R)-4-(1-(2-((3-(difluoromethoxy)-4-fluorobenzyl)oxy)-3-methylbutanamido)cyclopropyl)benzoic acid]"
20,0.776 nM,"CC(C)[C@@H](OCc1ccc(C(F)(F)F)cc1)C(=O)N[C@@H](C)c1ccc(C(=O)O)cc1 [Example 1, 4-((S)-1-((R)-3-methyl-2-((4-(trifluoromethyl)benzyl)oxy)butanamido)ethyl)benzoic acid]"
21,> 12900 nM,"CC(C)[C@@H](OCc1cccc(Cl)c1)C(=O)NC1(c2ccc(C(=O)O)cc2)CC1 [Example 50, (R)-4-(1-(2-((3-chlorobenzyl)oxy)-3-methylbutanamido)cyclopropyl)benzoic acid]"
22,> 209 nM,"CC(C)[C@@H](OCc1cccc(C2CC2)c1)C(=O)NC1(c2ccc(C(=O)O)cc2)CC1 [Example 65, (R)-4-(1-(2-((3-cyclopropylbenzyl)oxy)-3-methylbutanamido)cyclopropyl)benzoic acid]"
23,1.48 nM,"O=C(O)c1ccc(C2(NC(=O)C(OCc3cccc(Cl)c3)C3CCC3)CC2)cc1 (stereo not drawn) [Example 98, 4-(1-(2-((3-chlorobenzyl)oxy)-2-cyclobutylacetamido)cyclopropyl)benzoic acid]"
24,0.0871 nM,"CC(C)[C@@H](OCc1cccc(OC(F)F)c1)C(=O)N[C@@H](C)c1ccc(-c2nnn[nH]2)cc1 [Example 82, (R)—N—((S)-1-(4-(1H-tetrazol-5-yl)phenyl)ethyl)-2-((3-(difluoromethoxy)benzyl)oxy)-3-methylbutanamide]"
25,3.63 nM,"C[C@H](NC(=O)C(OCc1ccc(C(F)(F)F)cc1)C1CCC1)c1ccc(C(=O)O)cc1 (single isomer, unassigned) [Example 93]"
26,7.24 nM,"CC(O[C@@H](C(=O)N[C@@H](C)c1ccc(C(=O)O)cc1)C(C)C)c1ccc(F)cc1 (mixture of isomers) [Example 46, 4-((1 S)-1-((2R)-2-(1-(4-fluorophenyl)ethoxy)-3-methylbutanamido)ethyl)benzoic acid]"
27,0.0955 nM,"CC(C)[C@@H](OCc1cccc(OC(F)(F)F)c1)C(=O)N[C@@H](C)c1ccc(C(=O)O)cc1 [Example 20, 4-((S)-1-((R)-3-methyl-2-((3-(trifluoromethoxy)benzyl)oxy)butanamido)ethyl)benzoic acid]"
28,182 nM,"CC(C)[C@@H](OCc1ccc(C(F)(F)F)cc1)C(=O)NC1(c2ccc(C(=O)O)cc2)CCC1 [Example 73, (R)-4-(1-(3-methyl-2-((4-(trifluoromethyl)benzyl)oxy)butanamido)cyclobutyl)benzoic acid]"
29,34.7 nM,"CC(C)[C@@H](OCc1ccn2ccnc2c1)C(=O)N[C@@H](C)c1ccc(C(=O)O)cc1 [Example 66, 4-((S)-1-((R)-2-(imidazo[1,2-a]pyridin-7-ylmethoxy)-3-methylbutanamido)ethyl)benzoic acid]"
30,0.302 nM,"CC(C)[C@@H](OCc1cccc(OC(F)F)c1)C(=O)N[C@@H](C)c1ccc(C(=O)O)cc1 [Example 24, 4-((S)-1-((R)-2-((3-(difluoromethoxy)benzyl)oxy)-3-methylbutanamido)ethyl)benzoic acid]"
